In ChEMBL document CHEMBL1201862, “PubChem BioAssay data set” (2004):
The source made the active and inactive calls.

What was measured:
[1] = biological target: Dual specificity protein phosphatase 3 (Homo sapiens, UniProt P51452); assay: inhibition constants for human DUSP3 – biochemical, colorimetric, SAR follow-up (AID 2004)
[2] = biological target: Tumor necrosis factor (Homo sapiens, UniProt P01375); assay: analog potency on TNFa NF-kB signaling – cell-based, revised, SAR follow-up (AID 2337); assay type: functional
Sequence of Tumor necrosis factor (P01375 whole entry, the tested form may be a part): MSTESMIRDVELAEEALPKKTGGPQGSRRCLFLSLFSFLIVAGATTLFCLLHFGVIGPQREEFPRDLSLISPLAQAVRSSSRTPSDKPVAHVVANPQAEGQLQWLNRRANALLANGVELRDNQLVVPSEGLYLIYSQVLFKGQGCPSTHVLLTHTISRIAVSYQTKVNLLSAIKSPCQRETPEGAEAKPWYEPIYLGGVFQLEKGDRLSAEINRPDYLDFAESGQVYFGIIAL

[3] = biological target: T1, Nucleotide-binding oligomerization domain-containing protein 1 (Homo sapiens, UniProt Q9Y239); assay: blockers of NOD1 pathway activity – revised, SAR follow-up (AID 2333); assay type: functional
T1 sequence (Q9Y239 whole entry): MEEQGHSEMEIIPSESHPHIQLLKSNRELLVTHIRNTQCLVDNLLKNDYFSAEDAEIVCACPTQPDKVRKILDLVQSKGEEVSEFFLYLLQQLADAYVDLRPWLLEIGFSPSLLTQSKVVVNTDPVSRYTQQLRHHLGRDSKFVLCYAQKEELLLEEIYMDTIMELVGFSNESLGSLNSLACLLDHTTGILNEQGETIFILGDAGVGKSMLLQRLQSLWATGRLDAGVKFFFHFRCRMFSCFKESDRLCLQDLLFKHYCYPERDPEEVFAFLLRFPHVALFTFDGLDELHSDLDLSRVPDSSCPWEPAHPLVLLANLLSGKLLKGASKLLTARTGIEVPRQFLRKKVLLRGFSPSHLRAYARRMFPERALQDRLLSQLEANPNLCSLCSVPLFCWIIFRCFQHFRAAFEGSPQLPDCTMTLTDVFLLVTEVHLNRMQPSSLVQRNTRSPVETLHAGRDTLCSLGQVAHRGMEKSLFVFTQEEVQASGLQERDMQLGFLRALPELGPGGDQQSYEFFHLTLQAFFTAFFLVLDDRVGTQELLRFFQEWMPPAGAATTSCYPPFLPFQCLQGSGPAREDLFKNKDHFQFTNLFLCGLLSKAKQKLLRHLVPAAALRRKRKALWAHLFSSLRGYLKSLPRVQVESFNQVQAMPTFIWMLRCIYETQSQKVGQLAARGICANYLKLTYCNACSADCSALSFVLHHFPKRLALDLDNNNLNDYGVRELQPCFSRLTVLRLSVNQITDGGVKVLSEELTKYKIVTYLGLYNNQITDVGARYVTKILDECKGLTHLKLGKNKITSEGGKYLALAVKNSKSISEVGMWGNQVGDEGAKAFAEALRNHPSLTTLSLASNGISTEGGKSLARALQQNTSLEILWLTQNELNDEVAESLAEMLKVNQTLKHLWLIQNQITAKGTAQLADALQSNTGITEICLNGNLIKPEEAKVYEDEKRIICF

[4] = biological target: Nucleotide-binding oligomerization domain-containing protein 2 (Homo sapiens, UniProt Q9HC29); assay: PubChem AID 2334; assay type: functional
Sequence of Nucleotide-binding oligomerization domain-containing protein 2 (Q9HC29 whole entry, the tested form may be a part): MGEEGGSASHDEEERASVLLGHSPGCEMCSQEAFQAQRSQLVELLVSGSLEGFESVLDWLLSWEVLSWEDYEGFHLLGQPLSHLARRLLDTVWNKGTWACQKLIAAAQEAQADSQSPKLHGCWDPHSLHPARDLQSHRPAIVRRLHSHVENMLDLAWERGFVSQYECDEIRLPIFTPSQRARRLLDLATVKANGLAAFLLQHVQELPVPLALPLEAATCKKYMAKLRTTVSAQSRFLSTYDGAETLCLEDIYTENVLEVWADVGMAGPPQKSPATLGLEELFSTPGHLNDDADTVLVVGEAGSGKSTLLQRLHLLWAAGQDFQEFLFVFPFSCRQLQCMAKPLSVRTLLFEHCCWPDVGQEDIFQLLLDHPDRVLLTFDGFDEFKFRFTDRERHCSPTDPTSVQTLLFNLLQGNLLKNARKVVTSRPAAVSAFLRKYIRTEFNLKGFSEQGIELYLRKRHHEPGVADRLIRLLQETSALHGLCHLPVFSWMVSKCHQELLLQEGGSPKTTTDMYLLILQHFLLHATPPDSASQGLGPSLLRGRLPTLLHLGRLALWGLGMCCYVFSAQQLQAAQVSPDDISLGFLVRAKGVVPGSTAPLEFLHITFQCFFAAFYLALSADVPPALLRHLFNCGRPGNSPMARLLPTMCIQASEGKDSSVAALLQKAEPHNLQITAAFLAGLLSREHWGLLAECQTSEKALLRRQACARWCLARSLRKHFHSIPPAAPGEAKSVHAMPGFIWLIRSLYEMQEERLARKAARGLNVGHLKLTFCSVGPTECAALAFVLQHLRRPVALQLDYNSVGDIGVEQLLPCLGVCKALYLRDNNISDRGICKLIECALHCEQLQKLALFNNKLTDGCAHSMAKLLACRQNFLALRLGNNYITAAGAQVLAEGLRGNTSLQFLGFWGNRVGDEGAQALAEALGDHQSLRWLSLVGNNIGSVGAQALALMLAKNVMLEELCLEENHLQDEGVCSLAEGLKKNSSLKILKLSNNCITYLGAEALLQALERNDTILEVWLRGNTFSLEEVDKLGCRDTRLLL

[5] = tested on: HEK293; assay: cells; details: Homo sapiens
[6] = biological target: Bcl-2-like protein 10 (Homo sapiens, UniProt Q9HD36); assay: Bcl-B/TR3 peptide binding disruption – biochemical, fluorescence polarization, FITC-TR3 peptide, selectivity assay for Bfl-1 inhibitor project, primary screen (AID 748);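 note: fluorescence polarization from a fluorescein-labelled TR3 peptide binding purified Bcl-B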
Sequence of Bcl-2-like protein 10 (Q9HD36 whole entry): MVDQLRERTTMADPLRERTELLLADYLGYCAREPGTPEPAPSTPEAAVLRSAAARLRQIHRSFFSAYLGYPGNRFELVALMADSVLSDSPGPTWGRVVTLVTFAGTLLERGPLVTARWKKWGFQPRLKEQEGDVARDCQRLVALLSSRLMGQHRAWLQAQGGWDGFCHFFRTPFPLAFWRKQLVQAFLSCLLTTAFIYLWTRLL

[7] = biological target: Induced myeloid leukemia cell differentiation protein Mcl-1 (Homo sapiens, UniProt Q07820); assay type: functional
Sequence of Induced myeloid leukemia cell differentiation protein Mcl-1 (Q07820 whole entry, the tested form may be a part): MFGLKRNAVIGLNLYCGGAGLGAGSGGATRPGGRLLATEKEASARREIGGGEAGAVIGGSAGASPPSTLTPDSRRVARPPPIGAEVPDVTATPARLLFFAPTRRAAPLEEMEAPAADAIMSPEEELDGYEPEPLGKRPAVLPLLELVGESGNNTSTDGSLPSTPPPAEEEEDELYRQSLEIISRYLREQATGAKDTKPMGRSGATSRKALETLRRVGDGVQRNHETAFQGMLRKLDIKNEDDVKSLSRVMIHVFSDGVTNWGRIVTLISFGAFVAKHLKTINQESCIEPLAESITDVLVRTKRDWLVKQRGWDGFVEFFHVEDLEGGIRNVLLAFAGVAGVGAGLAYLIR

[8] = biological target: T2, Hepatocyte nuclear factor 4-alpha (Homo sapiens, UniProt P41235); assay type: functional, cell-based;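 note: biochemical luminescence-based dose-response counterscreen measuring inhibition of HNF4 dimerization, run alongside a screen for blockers of ABHD5–perilipin-5 interaction; split luciferase complementation of HNF4 fusion proteins in cell lysate measuring dimerization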
T2 sequence (P41235 whole entry): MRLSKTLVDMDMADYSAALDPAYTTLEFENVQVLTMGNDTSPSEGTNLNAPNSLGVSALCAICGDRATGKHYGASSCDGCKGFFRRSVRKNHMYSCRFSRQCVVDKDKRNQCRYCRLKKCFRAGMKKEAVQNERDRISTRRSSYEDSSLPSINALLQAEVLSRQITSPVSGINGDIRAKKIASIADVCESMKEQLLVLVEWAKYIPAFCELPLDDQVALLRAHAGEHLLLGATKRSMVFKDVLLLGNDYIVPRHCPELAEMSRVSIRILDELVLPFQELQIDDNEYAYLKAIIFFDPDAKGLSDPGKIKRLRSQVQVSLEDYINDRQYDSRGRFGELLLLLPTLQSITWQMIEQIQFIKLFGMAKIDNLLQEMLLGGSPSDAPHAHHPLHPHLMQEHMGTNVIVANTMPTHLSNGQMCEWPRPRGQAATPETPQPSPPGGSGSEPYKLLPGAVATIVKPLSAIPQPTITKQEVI

[9] = tested on: HEK293; assay: Fluorescence-based counterscreen for potentiators or agonists of NPY-Y2: cell-based high-throughput dose response assay to identify inhibitors of cyclic nucleotide gated ion channel (CNGC) activity. In this assay, the parental HEK293 cell line transfected with a cyclic-nucleotide gated ion channel (CNGC)-based cAMP sensor is used to measure inhibition of isoproterenol-induced CNGC activity by test compound.; assay type: functional; details: Homo sapiens
[10] = biological target: T3, Neuropeptide Y receptor type 2 (Homo sapiens, UniProt P49146); assay: Fluorescence-based cell-based high-throughput dose response assay for agonists of NPY-Y2. [Related pubchem assays: 1703 (Screening assay (CNGC inhibitors).), 1359 (Screening assay (NPY-Y2 potentiators or agonists).), 1304 (Screening assay (NPY-Y1 potentiators or agonists).), 1710 (Screening assay (NPY-Y2 agonists).), 1791 (Summary AID.)]; assay type: functional
T3 sequence (P49146 whole entry): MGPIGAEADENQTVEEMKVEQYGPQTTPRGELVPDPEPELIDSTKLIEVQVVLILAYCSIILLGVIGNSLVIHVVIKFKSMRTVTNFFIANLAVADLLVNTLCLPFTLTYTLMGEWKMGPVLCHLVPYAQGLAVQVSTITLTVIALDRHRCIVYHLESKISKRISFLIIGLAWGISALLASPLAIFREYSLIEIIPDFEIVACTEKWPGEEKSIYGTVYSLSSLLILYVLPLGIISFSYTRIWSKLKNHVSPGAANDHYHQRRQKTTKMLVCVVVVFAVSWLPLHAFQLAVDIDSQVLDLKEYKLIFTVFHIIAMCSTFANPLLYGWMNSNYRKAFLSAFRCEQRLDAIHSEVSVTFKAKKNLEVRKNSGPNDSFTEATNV

[11] = biological target: T4, Neuropeptide Y receptor type 1 (Homo sapiens, UniProt P25929); assay: Fluorescence-based counterscreen for agonists of NPY-Y2: cell-based high-throughput dose response assay for agonists of NPY-Y1.; assay type: functional
T4 sequence (P25929 whole entry): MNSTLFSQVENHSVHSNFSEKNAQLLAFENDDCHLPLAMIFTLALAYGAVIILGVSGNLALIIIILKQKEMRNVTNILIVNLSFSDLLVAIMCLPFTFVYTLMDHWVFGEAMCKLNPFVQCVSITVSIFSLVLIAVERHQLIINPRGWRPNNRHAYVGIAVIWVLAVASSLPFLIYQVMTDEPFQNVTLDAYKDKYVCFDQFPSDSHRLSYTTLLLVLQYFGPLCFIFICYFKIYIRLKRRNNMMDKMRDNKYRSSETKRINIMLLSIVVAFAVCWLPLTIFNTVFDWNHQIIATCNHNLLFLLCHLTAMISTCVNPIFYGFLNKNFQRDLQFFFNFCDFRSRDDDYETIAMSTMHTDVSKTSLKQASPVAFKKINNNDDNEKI

[12] = biological target: Cytochrome P450 2D6 (Homo sapiens, UniProt P10635); assay: qHTS Assay for Inhibitors and Substrates of Cytochrome P450 2D6. [Related pubchem assays: 410 ]; assay type: ADME; details: read-out: Potency
Sequence of Cytochrome P450 2D6 (P10635 whole entry): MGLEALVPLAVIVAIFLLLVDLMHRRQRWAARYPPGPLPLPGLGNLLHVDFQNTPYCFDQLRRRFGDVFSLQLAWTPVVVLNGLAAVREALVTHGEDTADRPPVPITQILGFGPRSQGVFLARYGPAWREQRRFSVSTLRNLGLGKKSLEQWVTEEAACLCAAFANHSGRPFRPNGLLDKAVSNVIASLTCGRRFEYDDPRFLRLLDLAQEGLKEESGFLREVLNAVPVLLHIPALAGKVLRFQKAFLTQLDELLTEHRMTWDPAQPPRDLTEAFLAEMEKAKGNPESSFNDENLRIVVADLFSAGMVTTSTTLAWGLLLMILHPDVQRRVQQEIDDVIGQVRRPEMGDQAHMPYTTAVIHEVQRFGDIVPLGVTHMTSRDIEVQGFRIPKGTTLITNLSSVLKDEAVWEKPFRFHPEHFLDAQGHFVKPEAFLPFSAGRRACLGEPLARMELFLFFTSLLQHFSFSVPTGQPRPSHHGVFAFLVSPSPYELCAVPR

[13] = biological target: T5, Alkaline phosphatase, tissue-nonspecific isozyme (Homo sapiens, UniProt P05186)
T5 sequence (P05186 whole entry): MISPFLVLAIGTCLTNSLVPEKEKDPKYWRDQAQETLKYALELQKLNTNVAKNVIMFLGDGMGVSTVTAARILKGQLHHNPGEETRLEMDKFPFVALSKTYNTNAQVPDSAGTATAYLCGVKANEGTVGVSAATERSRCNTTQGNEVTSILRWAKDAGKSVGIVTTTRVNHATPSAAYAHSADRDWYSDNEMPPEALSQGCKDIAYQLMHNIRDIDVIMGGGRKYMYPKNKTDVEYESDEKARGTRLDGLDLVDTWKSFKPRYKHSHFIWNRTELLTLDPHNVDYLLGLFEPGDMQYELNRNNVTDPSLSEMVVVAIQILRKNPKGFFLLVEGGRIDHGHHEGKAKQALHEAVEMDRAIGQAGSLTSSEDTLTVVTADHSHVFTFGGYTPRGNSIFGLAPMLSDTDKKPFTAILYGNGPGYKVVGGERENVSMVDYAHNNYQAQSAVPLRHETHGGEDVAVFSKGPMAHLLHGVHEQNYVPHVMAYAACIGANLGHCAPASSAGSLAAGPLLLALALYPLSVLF

[14] = biological target: T6, Tyrosine-protein phosphatase non-receptor type 7 (Homo sapiens, UniProt P35236); assay type: functional
T6 sequence (P35236 whole entry): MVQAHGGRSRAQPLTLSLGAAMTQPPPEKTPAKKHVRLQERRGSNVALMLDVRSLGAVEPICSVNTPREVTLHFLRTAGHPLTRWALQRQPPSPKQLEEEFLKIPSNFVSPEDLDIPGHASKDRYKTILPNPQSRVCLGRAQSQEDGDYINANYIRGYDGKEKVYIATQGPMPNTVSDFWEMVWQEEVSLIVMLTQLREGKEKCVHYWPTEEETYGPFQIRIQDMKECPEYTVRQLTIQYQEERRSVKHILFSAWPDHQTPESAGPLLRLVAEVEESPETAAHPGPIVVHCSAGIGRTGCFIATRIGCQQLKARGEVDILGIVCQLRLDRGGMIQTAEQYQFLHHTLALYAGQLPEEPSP

[15] = biological target: Glyceraldehyde-3-phosphate dehydrogenase (Homo sapiens, UniProt P04406)
Sequence of Glyceraldehyde-3-phosphate dehydrogenase (P04406 whole entry): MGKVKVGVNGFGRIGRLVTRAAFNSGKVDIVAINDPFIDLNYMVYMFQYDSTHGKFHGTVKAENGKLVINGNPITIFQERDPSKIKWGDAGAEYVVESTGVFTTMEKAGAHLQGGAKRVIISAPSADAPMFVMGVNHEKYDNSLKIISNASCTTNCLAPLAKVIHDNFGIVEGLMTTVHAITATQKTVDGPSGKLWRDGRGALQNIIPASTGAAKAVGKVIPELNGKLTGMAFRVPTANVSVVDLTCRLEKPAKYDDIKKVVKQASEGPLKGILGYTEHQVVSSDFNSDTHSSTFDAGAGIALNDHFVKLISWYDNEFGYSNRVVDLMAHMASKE

[16] = biological target: Heat shock cognate 71 kDa protein (Homo sapiens, UniProt P11142); assay: In Vitro Hsc70 Dose Response Fluorescence Polarization Assay. [Related pubchem assays: 1072 ]
Sequence of Heat shock cognate 71 kDa protein (P11142 whole entry): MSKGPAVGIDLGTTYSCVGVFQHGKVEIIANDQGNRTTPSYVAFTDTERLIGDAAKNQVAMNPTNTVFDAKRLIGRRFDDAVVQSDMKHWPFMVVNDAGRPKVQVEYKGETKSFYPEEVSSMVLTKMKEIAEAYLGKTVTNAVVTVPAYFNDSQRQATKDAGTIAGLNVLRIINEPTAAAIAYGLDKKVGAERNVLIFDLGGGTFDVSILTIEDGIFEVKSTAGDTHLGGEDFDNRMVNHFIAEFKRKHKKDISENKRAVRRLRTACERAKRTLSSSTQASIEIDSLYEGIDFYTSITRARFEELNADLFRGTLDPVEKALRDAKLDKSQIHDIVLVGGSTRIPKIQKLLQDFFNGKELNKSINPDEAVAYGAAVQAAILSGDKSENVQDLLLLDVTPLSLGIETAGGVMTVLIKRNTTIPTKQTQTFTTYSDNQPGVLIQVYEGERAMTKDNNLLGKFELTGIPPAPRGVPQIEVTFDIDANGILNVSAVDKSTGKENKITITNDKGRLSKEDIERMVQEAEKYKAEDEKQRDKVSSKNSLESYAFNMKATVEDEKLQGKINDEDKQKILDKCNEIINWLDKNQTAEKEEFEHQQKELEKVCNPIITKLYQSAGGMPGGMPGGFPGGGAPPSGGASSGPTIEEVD

[17] = biological target: Heat shock 70 kDa protein 1A (Homo sapiens, UniProt P0DMV8); assay: inhibition of Hsp70 binding activity – biochemical, fluorescence polarization, SAR follow-up (AID 1072)
Sequence of Heat shock 70 kDa protein 1A (P0DMV8 whole entry): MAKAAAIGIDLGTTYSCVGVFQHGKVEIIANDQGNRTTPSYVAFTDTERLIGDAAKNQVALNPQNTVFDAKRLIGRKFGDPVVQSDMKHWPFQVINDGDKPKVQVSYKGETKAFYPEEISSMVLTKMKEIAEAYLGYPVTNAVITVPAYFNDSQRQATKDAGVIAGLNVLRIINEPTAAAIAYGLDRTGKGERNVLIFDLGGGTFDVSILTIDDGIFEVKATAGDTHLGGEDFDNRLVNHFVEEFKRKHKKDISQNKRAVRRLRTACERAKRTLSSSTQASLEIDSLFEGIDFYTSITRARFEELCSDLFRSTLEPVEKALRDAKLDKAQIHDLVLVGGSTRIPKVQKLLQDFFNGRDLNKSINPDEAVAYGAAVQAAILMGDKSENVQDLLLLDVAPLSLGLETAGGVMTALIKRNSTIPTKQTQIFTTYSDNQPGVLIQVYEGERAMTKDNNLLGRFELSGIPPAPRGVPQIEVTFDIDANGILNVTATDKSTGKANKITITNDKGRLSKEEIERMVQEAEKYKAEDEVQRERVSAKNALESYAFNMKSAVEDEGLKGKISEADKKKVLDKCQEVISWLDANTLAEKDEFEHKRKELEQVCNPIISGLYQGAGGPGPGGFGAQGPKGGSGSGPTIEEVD

[18] = biological target: T7, Dual specificity protein phosphatase 6 (Rattus norvegicus, UniProt Q64346)
T7 sequence (Q64346 whole entry): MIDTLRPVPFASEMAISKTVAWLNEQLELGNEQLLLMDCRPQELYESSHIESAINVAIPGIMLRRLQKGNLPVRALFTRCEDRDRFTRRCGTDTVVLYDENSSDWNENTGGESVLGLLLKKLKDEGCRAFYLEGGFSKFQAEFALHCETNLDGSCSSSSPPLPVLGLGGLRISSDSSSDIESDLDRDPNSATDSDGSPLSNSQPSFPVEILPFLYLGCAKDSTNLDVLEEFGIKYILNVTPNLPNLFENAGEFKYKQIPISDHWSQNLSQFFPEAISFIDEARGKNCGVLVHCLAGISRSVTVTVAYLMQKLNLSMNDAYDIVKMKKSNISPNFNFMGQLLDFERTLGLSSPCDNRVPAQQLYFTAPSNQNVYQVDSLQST

[19] = biological target: T7, Dual specificity protein phosphatase 6; assay type: functional
[20] = biological target: DNA (cytosine-5)-methyltransferase 1 (Homo sapiens, UniProt P26358); assay: inhibition of DNA methylation by DNMT1 – biochemical, fluorescent molecular beacon, confirmation (AID 602386); assay type: functional
[21] = biological target: T8, Caspase-6 (Homo sapiens, UniProt P55212); assay: inhibition of CASP6 peptide cleavage – biochemical, VEID-R110 fluorescence, cherry-pick, dose response (AID 720632)
T8 sequence (P55212 whole entry): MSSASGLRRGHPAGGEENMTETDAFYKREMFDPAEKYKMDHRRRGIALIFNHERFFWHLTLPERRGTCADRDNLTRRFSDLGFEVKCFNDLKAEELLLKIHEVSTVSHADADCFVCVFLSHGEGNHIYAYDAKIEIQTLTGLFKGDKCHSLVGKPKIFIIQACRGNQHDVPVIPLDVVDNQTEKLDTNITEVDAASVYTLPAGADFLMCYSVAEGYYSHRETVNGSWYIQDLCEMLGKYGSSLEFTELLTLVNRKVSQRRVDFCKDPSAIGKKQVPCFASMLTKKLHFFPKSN

[22] = biological target: Caspase-7 (Homo sapiens, UniProt P55210); assay: caspase-7 enzyme inhibition, selectivity check – biochemical, DEVD-R110 fluorescence, cherry-pick, selectivity assay for caspase-6 inhibitor project, dose response (AID 743295); assay type: functional
Sequence of Caspase-7 (P55210 24-198 limits assumed): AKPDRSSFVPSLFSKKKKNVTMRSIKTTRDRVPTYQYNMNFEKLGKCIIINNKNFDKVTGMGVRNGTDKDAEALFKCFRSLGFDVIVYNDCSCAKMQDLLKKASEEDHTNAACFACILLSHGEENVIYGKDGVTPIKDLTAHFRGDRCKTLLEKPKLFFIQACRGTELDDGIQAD
Sequence of Caspase-7 (P55210 207-303 limits assumed): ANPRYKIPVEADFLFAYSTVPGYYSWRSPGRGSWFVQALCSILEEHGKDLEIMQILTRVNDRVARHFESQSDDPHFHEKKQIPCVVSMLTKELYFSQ

[23] = biological target: Caspase-8 (Homo sapiens, UniProt Q14790); assay: inhibitors of purified CASP8 protease – biochemical, Z-IETD-R110 fluorescence, cherry-picked samples, selectivity assay for caspase-6 inhibitor project, dose response (AID 743294)
Sequence of Caspase-8 (Q14790 217-374 limits assumed): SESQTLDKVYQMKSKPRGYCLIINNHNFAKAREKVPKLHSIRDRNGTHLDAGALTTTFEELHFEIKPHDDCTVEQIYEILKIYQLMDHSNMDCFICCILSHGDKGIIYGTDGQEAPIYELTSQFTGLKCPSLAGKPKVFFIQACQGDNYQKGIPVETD
Sequence of Caspase-8 (Q14790 385-479 limits assumed): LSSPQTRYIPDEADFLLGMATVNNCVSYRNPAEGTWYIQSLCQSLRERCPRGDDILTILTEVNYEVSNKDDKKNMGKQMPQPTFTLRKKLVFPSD

Sequence of Dual specificity protein phosphatase 3 (P51452 whole entry): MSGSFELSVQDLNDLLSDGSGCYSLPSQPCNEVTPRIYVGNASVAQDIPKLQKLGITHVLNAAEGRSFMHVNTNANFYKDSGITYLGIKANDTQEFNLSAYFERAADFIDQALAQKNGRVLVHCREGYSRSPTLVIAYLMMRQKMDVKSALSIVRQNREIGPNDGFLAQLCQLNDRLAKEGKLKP

## CCOC(=O)c1c(N)sc2c1CCN(Cc1ccccc1)C2 [TINORIDINE]
[1]
  Ki: 20.5 µM (inactive)

## CCCCNCC(=O)Nc1sc2c(c1C(=O)O)CCCC2
[2]
  IC50: > 20 µM (inactive)
[3]
  IC50: > 20 µM (inactive)
[4]
  IC50: > 20 µM (inactive)
[5]
  IC50: > 20 µM (inactive)

## Cc1ccc(NC(=O)CSc2nnc(-c3ccco3)c(-c3ccco3)n2)cc1
[6]
  IC50: 19 µM (active)
[7]
  IC50: 3.01 µM (active)
[8]
  IC50: 1.6 µM (active)

## Cc1c([N+](=O)[O-])c(C(=O)Sc2ccc(Br)cc2)nn1C
[9]
  EC50: > 11.8 µM (not active)
[10]
  EC50: > 35.4 µM (not active)
[11]
  EC50: > 35.4 µM (not active)

## CCCCc1nc2c(c3c1CC(C)OC3)CN(CCC(C)C)CC2 (stereo not drawn)
[12]
  AC50: 3.98 µM (inconclusive)

## Cn1c(=O)c2c(nc(N/N=C/c3cccs3)n2Cc2ccc(Br)cc2)n(C)c1=O
[13]
  EC50: > 100 µM (not active)

## O=C(O)C1Nc2c(Cl)cc(Cl)c(Cl)c2C2C=CCC12 (stereo not drawn)
[14]
  IC50: 9.63 µM (active)
[15]
  IC50: > 100 µM (not active)
[16]
  IC50: > 100 µM (not active)
[17]
  IC50: > 100 µM (not active)
[18]
  IC50: 14.2 µM (active)
[19]
  IC50: 12 µM (active)
[20]
  IC50: 4.36 µM (active)
[21]
  AC50: 2 µM (active)
[22]
  AC50: 34.1 µM (active)
[23]
  AC50: > 70 µM (inactive)
